Reference: ChEMBL document CHEMBL1201861, “Genomics of Drug Sensitity in Cancer screening data, Wellcome Trust Sanger Institute”

Legend:
CPC-N = assay: cells; assay type: functional, cell-based, Homo sapiens; conditions: Homo sapiens, CPC-N;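 further: growth inhibition of CPC-N cells, with a cell viability assay as the readout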
Description: SANGER: Inhibition of human CPC-N cell growth in a cell viability assay.

D-542MG = assay: cells; assay type: functional, cell-based, Homo sapiens; conditions: Homo sapiens, D-542MG
Description: SANGER: Inhibition of human D-542MG cell growth in a cell viability assay.

DMS-273 = assay: cells; assay type: functional, cell-based, Homo sapiens; conditions: Homo sapiens, DMS-273
Description: SANGER: Inhibition of human DMS-273 cell growth in a cell viability assay.

DoTc2-4510 = assay: cells; assay type: functional, cell-based, Homo sapiens; conditions: Homo sapiens, DoTc2-4510
EGI-1 = assay: cells; assay type: functional, cell-based, Homo sapiens; conditions: Homo sapiens, EGI-1;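 further: cell viability readout used to gauge growth inhibition of EGI-1 cells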
Description: SANGER: Inhibition of human EGI-1 cell growth in a cell viability assay.

EVSA-T = assay: cells; assay type: functional, cell-based, Homo sapiens; conditions: Homo sapiens, EVSA-T;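 further: growth inhibition of EVSA-T cells, read out with a cell viability assay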
Description: SANGER: Inhibition of human EVSA-T cell growth in a cell viability assay.

GAMG = assay: cells; assay type: functional, cell-based, Homo sapiens; conditions: Homo sapiens, GAMG;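 further: cell growth inhibition measured by a viability assay in the GAMG human cell line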
Description: SANGER: Inhibition of human GAMG cell growth in a cell viability assay.

GCT = assay: cells; assay type: functional, cell-based, Homo sapiens; conditions: Homo sapiens, GCT;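 further: GCT cell line proliferation inhibition, read out with a cell viability assay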
Description: SANGER: Inhibition of human GCT cell growth in a cell viability assay.

H4 = assay: cells; assay type: functional, cell-based, Homo sapiens; conditions: Homo sapiens, H4
Description: SANGER: Inhibition of human H4 cell growth in a cell viability assay.

HCC1419 = assay: cells; assay type: functional, cell-based, Homo sapiens; conditions: Homo sapiens, HCC1419;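 further: growth inhibition of human HCC1419 cells, read out as cell viability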
Description: SANGER: Inhibition of human HCC1419 cell growth in a cell viability assay.

HSC-4 = assay: cells; assay type: functional, cell-based, Homo sapiens; conditions: Homo sapiens, HSC-4;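 further: growth inhibition of human HSC-4 cells, read out with a cell viability assay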
Description: SANGER: Inhibition of human HSC-4 cell growth in a cell viability assay.

HuCCT-1 = assay: cells; assay type: functional, cell-based, Homo sapiens, HuCCT1; conditions: Homo sapiens, HuCCT-1;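 further: growth inhibition of HuCCT-1 cells, read out by a cell viability assay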
Description: SANGER: Inhibition of human HuCCT1 cell growth in a cell viability assay.

K052 = assay: cells; assay type: functional, cell-based, Homo sapiens; conditions: Homo sapiens, K052;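 further: Read-out from a cell viability assay, IC50 reflecting suppression of K052 cell growth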
Description: SANGER: Inhibition of human K052 cell growth in a cell viability assay.

KMS-12-PE = assay: cells; assay type: functional, cell-based, Homo sapiens; conditions: Homo sapiens, KMS-12-PE;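 further: growth inhibition of human KMS-12-PE cells, measured with a cell viability assay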
Description: SANGER: Inhibition of human KMS-12-PE cell growth in a cell viability assay.

KYSE-270 = assay: cells; assay type: functional, cell-based, Homo sapiens; conditions: Homo sapiens, KYSE-270;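 further: cell growth inhibition measured with a viability assay in the human KYSE-270 line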
Description: SANGER: Inhibition of human KYSE-270 cell growth in a cell viability assay.

LU-165 = assay: cells; assay type: functional, cell-based, Homo sapiens; conditions: Homo sapiens, LU-165
Description: SANGER: Inhibition of human LU-165 cell growth in a cell viability assay.

LoVo = assay: cells; assay type: functional, cell-based, Homo sapiens; conditions: Homo sapiens, LoVo;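 further: growth inhibition of human LoVo cells, read out with a cell viability assay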
Description: SANGER: Inhibition of human LoVo cell growth in a cell viability assay.

MDA-MB-175-VII = assay: cells; assay type: functional, cell-based, Homo sapiens; conditions: Homo sapiens, MDA-MB-175-VII
MDA-MB-361 = assay: cells; assay type: functional, cell-based, Homo sapiens; conditions: Homo sapiens, MDA-MB-361
ME-180 = assay: cells; assay type: functional, cell-based, Homo sapiens; conditions: Homo sapiens, ME-180;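 further: cell viability assay measuring growth inhibition of ME-180 cells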
Description: SANGER: Inhibition of human ME-180 cell growth in a cell viability assay.

MKN-28 = assay: cells; assay type: functional, cell-based, Homo sapiens; conditions: Homo sapiens, MKN-28;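 further: cell viability assay read-out, IC50 reflects suppression of growth of human MKN-28 cells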
Description: SANGER: Inhibition of human MKN28 cell growth in a cell viability assay.

NCCIT = assay: SANGER: Inhibition of human NCCIT cell growth in a cell viability assay.; assay type: functional, cell-based; conditions: Homo sapiens, NCCIT
NCI-H187 = assay: cells; assay type: functional, cell-based, Homo sapiens; conditions: Homo sapiens, NCI-H187;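 further: growth inhibition of NCI-H187 cells, read out as cell viability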
Description: SANGER: Inhibition of human NCI-H187 cell growth in a cell viability assay.

NCI-H1963 = assay: cells; assay type: functional, cell-based, Homo sapiens; conditions: Homo sapiens, NCI-H1963;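 further: cell growth inhibition of the human line, determined with a cell viability assay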
Description: SANGER: Inhibition of human NCI-H1963 cell growth in a cell viability assay.

NCI-H2171 = assay: cells; assay type: functional, cell-based, Homo sapiens; conditions: Homo sapiens, NCI-H2171;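 further: growth inhibition of human NCI-H2171 cells, read out by a cell viability assay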
Description: SANGER: Inhibition of human NCI-H2171 cell growth in a cell viability assay.

NCI-H2227 = assay: cells; assay type: functional, cell-based, Homo sapiens; conditions: Homo sapiens, NCI-H2227;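 further: growth inhibition of the human cell line, read out with a cell viability assay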
Description: SANGER: Inhibition of human NCI-H2227 cell growth in a cell viability assay.

NCI-H524 = assay: cells; assay type: functional, cell-based, Homo sapiens; conditions: Homo sapiens, NCI-H524;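 further: growth inhibition of human NCI-H524 cells, read out through a cell viability assay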
Description: SANGER: Inhibition of human NCI-H524 cell growth in a cell viability assay.

NCI-H64 = assay: cells; assay type: functional, cell-based, Homo sapiens; conditions: Homo sapiens, NCI-H64;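 further: growth inhibition of NCI-H64 cells, read out with a cell viability assay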
Description: SANGER: Inhibition of human NCI-H64 cell growth in a cell viability assay.

NCI-H650 = assay: cells; assay type: functional, cell-based, Homo sapiens; conditions: Homo sapiens, NCI-H650;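 further: growth inhibition of NCI-H650 cells, read out by a viability assay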
Description: SANGER: Inhibition of human NCI-H650 cell growth in a cell viability assay.

NUGC-3 = assay: cells; assay type: functional, cell-based, Homo sapiens; conditions: Homo sapiens, NUGC-3;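 further: growth inhibition of human NUGC-3 cells, read out with a cell viability assay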
Description: SANGER: Inhibition of human NUGC-3 cell growth in a cell viability assay.

OE33 = assay: cells; assay type: functional, cell-based, Homo sapiens; conditions: Homo sapiens, OE33;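 further: growth inhibition of human OE33 cells, measured by a cell viability assay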
Description: SANGER: Inhibition of human OE33 cell growth in a cell viability assay.

PC-3 = assay: cells; assay type: functional, cell-based, Homo sapiens; conditions: Homo sapiens, PC-3;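 further: cell viability assay measuring growth inhibition of PC-3 cells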
Description: SANGER: Inhibition of human PC-3 cell growth in a cell viability assay.

PF-382 = assay: cells; assay type: functional, cell-based, Homo sapiens; conditions: Homo sapiens, PF-382
Description: SANGER: Inhibition of human PF-382 cell growth in a cell viability assay.

SBC-5 = assay: cells; assay type: functional, cell-based, Homo sapiens; conditions: Homo sapiens, SBC-5;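 further: cell viability assay read-out, IC50 is the concentration that inhibits growth of the cells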
Description: SANGER: Inhibition of human SBC-5 cell growth in a cell viability assay.

SCC-25 = assay: cells; assay type: functional, cell-based, Homo sapiens; conditions: Homo sapiens, SCC-25;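 further: growth inhibition of SCC-25 cells, measured with a cell viability assay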
Description: SANGER: Inhibition of human SCC-25 cell growth in a cell viability assay.

SIG-M5 = assay: cells; assay type: functional, cell-based, Homo sapiens; conditions: Homo sapiens, SIG-M5;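 further: cell viability assay read-out, measuring how strongly growth of cultured human SIG-M5 cells is inhibited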
Description: SANGER: Inhibition of human SIG-M5 cell growth in a cell viability assay.

SK-MEL3 = assay: cells; assay type: functional, cell-based, Homo sapiens, SK-MEL-3; conditions: Homo sapiens, SK-MEL3;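 further: growth inhibition of human SK-MEL-3 cells, read out with a cell viability assay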
Description: SANGER: Inhibition of human SK-MEL-3 cell growth in a cell viability assay.

SW1573 = assay: cells; assay type: functional, cell-based, Homo sapiens; conditions: Homo sapiens, SW1573;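 further: growth inhibition of SW1573 cells, read out with a cell viability assay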
Description: SANGER: Inhibition of human SW1573 cell growth in a cell viability assay.

SiHa = assay: cells; assay type: functional, cell-based, Homo sapiens; conditions: Homo sapiens, SiHa;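 further: Viability-based readout of growth inhibition in SiHa cells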
Description: SANGER: Inhibition of human SiHa cell growth in a cell viability assay.

TALL-1 = assay: cells; assay type: functional, cell-based, Homo sapiens; conditions: Homo sapiens, TALL-1;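 further: growth inhibition of cultured human TALL-1 cells, read out by a cell viability assay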
Description: SANGER: Inhibition of human TALL-1 cell growth in a cell viability assay.

A2780 = assay: cells; assay type: functional, cell-based, Homo sapiens; conditions: Homo sapiens, A2780;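 further: growth inhibition of A2780 cells, read out with a cell viability assay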
Description: SANGER: Inhibition of human A2780 cell growth in a cell viability assay.

A-375 = assay: cells; assay type: functional, cell-based, Homo sapiens; conditions: Homo sapiens, A-375;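 further: growth inhibition of A375 cells, read out with a cell viability assay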
Description: SANGER: Inhibition of human A375 cell growth in a cell viability assay.

BFTC-909 = assay: cells; assay type: functional, cell-based, Homo sapiens; conditions: Homo sapiens, BFTC-909
Description: SANGER: Inhibition of human BFTC-909 cell growth in a cell viability assay.

C32 = assay: cells; assay type: functional, cell-based, Homo sapiens; conditions: Homo sapiens, C32;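 further: cell viability assay, with IC50 reflecting inhibition of C32 cell growth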
Description: SANGER: Inhibition of human C32 cell growth in a cell viability assay.

CAL-85-1 = assay: cells; assay type: functional, cell-based, Homo sapiens; conditions: Homo sapiens, CAL-85-1;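 further: growth inhibition of human CAL-85-1 cells, read out with a cell viability assay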
Description: SANGER: Inhibition of human CAL-85-1 cell growth in a cell viability assay.

UACC-812 = assay: cells; assay type: functional, cell-based, Homo sapiens; conditions: Homo sapiens, UACC-812
Description: SANGER: Inhibition of human UACC-812 cell growth in a cell viability assay.

YAPC = assay: cells; assay type: functional, cell-based, Homo sapiens; conditions: Homo sapiens, YAPC;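 further: growth inhibition of YAPC cells, measured with a cell viability assay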
Description: SANGER: Inhibition of human YAPC cell growth in a cell viability assay.

In the case of Cc1cc([N+](=O)[O-])ccc1NS(=O)(=O)c1cc(Cl)ccc1Cl, the IC50 (CPC-N) is reported as > 32 µM, the IC50 (D-542MG) is reported as 0.277 µM and the IC50 (DMS-273) is reported as 0.719 µM. The IC50 (DoTc2-4510) was 1.52 µM, the IC50 (EGI-1) was 24.8 µM and the IC50 (EVSA-T) was 11.9 µM. It also gave an IC50 (GAMG) of 5.58 µM, an IC50 (GCT) of 2.93 µM and an IC50 (H4) of 2.59 µM. It also gave an IC50 (HCC1419) of 3.89 µM, an IC50 (HSC-4) of 12.2 µM and an IC50 (HuCCT-1) of 7.32 µM. For the same compound, the IC50 (K052) was 14.2 µM, the IC50 (KMS-12-PE) was > 32 µM and the IC50 (KYSE-270) was 3.03 µM. The IC50 (LU-165) was > 32 µM, the IC50 (LoVo) was 2 µM and the IC50 (MDA-MB-175-VII) was 2.02 µM. For the same compound, the IC50 (MDA-MB-361) was 3.66 µM, the IC50 (ME-180) was 2.82 µM and the IC50 (MKN-28) was 4.37 µM. The IC50 (NCCIT) was 13.4 µM, the IC50 (NCI-H187) was 12.3 µM and the IC50 (NCI-H1963) was 8.68 µM. The IC50 (NCI-H2171) was > 32 µM, the IC50 (NCI-H2227) was > 32 µM and the IC50 (NCI-H524) was 12.5 µM. The IC50 (NCI-H64) was > 32 µM, the IC50 (NCI-H650) was 2.78 µM and the IC50 (NUGC-3) was 3.65 µM. For the same compound, the IC50 (OE33) was 9.49 µM, the IC50 (PC-3) was 8.12 µM and the IC50 (PF-382) was 7.73 µM. For the same compound, the IC50 (SBC-5) was 1.61 µM, the IC50 (SCC-25) was 10.9 µM and the IC50 (SIG-M5) was 3.36 µM. The IC50 (SK-MEL3) was 4.68 µM, the IC50 (SW1573) was 9.54 µM and the IC50 (SiHa) was 19.7 µM. For the same compound, the IC50 (TALL-1) was 6.23 µM, the IC50 (A2780) was 5.49 µM and the IC50 (A-375) was 3.58 µM. The IC50 (BFTC-909) was 3.61 µM, the IC50 (C32) was < 0.125 µM and the IC50 (CAL-85-1) was 3.61 µM. The IC50 (UACC-812) was > 32 µM and the IC50 (YAPC) was > 32 µM.
Oc1ccc2ccccc2c1SSc1c(O)ccc2ccccc12 was tested, and the IC50 (CPC-N) was > 32 µM, the IC50 (D-542MG) was 27.2 µM and the IC50 (DMS-273) was > 32 µM. The IC50 (DoTc2-4510) was 10.5 µM, the IC50 (EGI-1) was > 32 µM and the IC50 (EVSA-T) was > 32 µM. For the same compound, the IC50 (GAMG) was > 32 µM, the IC50 (GCT) was > 32 µM and the IC50 (H4) was > 32 µM. The IC50 (HCC1419) was > 32 µM, the IC50 (HSC-4) was > 32 µM and the IC50 (HuCCT-1) was 20.1 µM. The IC50 (K052) was > 32 µM, the IC50 (KMS-12-PE) was > 32 µM and the IC50 (KYSE-270) was > 32 µM. For the same compound, the IC50 (LU-165) was > 32 µM, the IC50 (LoVo) was > 32 µM and the IC50 (MDA-MB-175-VII) was > 32 µM. The IC50 (MDA-MB-361) was > 32 µM, the IC50 (ME-180) was > 32 µM and the IC50 (MKN-28) was 17.3 µM. The IC50 (NCCIT) was 29.8 µM, the IC50 (NCI-H187) was > 32 µM and the IC50 (NCI-H1963) was > 32 µM. For the same compound, the IC50 (NCI-H2171) was > 32 µM, the IC50 (NCI-H2227) was > 32 µM and the IC50 (NCI-H524) was > 32 µM. The IC50 (NCI-H64) was > 32 µM, the IC50 (NCI-H650) was > 32 µM and the IC50 (NUGC-3) was > 32 µM. For the same compound, the IC50 (OE33) was > 32 µM, the IC50 (PC-3) was > 32 µM and the IC50 (PF-382) was 5.35 µM. The IC50 (SBC-5) was > 32 µM, the IC50 (SCC-25) was > 32 µM and the IC50 (SIG-M5) was 2.1 µM. The IC50 (SK-MEL3) was > 32 µM, the IC50 (SW1573) was > 32 µM and the IC50 (SiHa) was > 32 µM. For the same compound, the IC50 (TALL-1) was > 32 µM, the IC50 (A2780) was 28.4 µM and the IC50 (A-375) was > 32 µM. For the same compound, the IC50 (BFTC-909) was > 32 µM, the IC50 (C32) was > 32 µM and the IC50 (CAL-85-1) was 7.37 µM. The IC50 (UACC-812) was > 32 µM and the IC50 (YAPC) was > 32 µM.
